Assays:
[1] = system: pores of the cheeks of healthy human males; assay: Human pore-shrinking effect (replica assessment of cheek pores); format: in vivo; conditions: for Replica assessment (average of n = 5): twice a day for one month, pore size rating 1-13, after application minus before application, control 0.3; for pore-shrinking effect: summary of Table 2, concentrations as in Table 2
Procedure: An experiment was conducted whereby a sample was applied twice a day for one month to the cheeks of healthy human males in groups of 5 men each. Aqueous solutions (containing 15 mass % of ethanol) of 3 mass % of the α-amino acid derivative or a salt thereof were prepared as the evaluation sample. The pH was regulated by hydrochloric acid or sodium hydroxide so as to be 7.0 to 7.5. When sample solubility was low, the solution was prepared accordingly. The control was an aqueous 15% ethanol solution. The sample aqueous solution and control aqueous solution were applied to one half of the face at a time.
A replica was collected before and after continuous application, and changes in the shape of the pores at the same site were observed using a three-dimensional laser scanning microscope. The size of the pores was macroscopically evaluated in 13 steps of 1 through 13 (with the pores becoming larger as the numbers became larger), the difference in the ratings before and after application (after application-before application) was calculated, and the efficacy of each sample was studied using this difference as the replica assessment.

[2] = system: back of a hairless mouse (HR-1), 10 mass % oleic acid applied; assay: Parakeratosis-inhibiting effect tests: oleic acid applied to hairless mouse back, macroscopic rough skin evaluation and parakeratosis value; format: in vivo; conditions: for Macroscopic evaluation (average of four animals): 100 μL after oleic acid, three days, rough skin score 0.0 (no redness) to 2.0 (control); for Parakeratosis value (average of four animals): tape-stripped stratum corneum, hematoxylin, range 1.0 to 3.0, higher = parakeratosis advanced, control 2.0; for parakeratosis value / parakeratosis-inhibiting effect / rough skin preventing effect, based on stratum corneum peeling and redness: summary of Table 1, concentrations as in Table 1
Procedure: Aqueous solutions (containing 30 mass % of ethanol) of primarily 3 mass % of an α-amino acid derivative or salt thereof were prepared as the evaluation sample. The pH was regulated by hydrochloric acid or sodium hydroxide so as to be 7.0 to 7.5. When sample solubility was low, the solution was prepared accordingly.
100 μL of 10 mass % oleic acid solution (solvent: ethanol) were applied to the back of a hairless mouse (HR-1; Hoshino Laboratory Animals). Then the sample solution (α-amino acid derivative, and the like) was applied 100 μL at a time. This procedure was continued for three days. […] The status of the skin was evaluated in 0.25-point intervals, with skin where the control (control aqueous solution) had been applied being 2.0 and skin where there was no redness being 0.0. At the same time, the stratum corneum at the back of the hairless mouse was peeled off with tape, the nuclei were stained by hematoxylin, and the degree of parakeratosis was observed and evaluated by a parakeratosis value within a range of 1.0 to 3.0 (in 0.25 increments).

[3] = system: cheek of a panel of 20 women; assay: Sensory irritation tests; format: in vivo, human; conditions: for Evaluation (sensory irritation, class of average rating): 1 mL on cheek, evaluated for ten minutes, 20 women; for sensory irritation: summary of Table 4, β-alanine at 3%
Procedure: 1 mL of a control aqueous solution and the sample aqueous solution prepared in Example 1 were applied using a cotton swab to the left or right cheek, respectively, of a panel of 20 women, the irritating sensation was evaluated every 30 seconds for ten minutes beginning immediately after application, and a final evaluation was reported. The evaluation of the irritating sensation was based on the following four steps of rating criteria, the average rating was calculated, and the average was classified by the following criteria.
3: Discontinued because of extremely strong irritation, such as stinging sensation, burning sensation, tickling sensation, itching, and the like.
2: Intolerable strong irritation, such as stinging sensation, burning sensation, tickling sensation, itching, and the like.
1: Tolerable with only slight stinging sensation, burning sensation, tickling sensation, itching, and the like.
0: Not particularly irritating.
A: average rating of less than 0.2
B: average rating of 0.2 to less than 1.0
C: average rating of 1.0 to less than 2.0
D: average rating of 2.0 or greater

[4] = system: back of hairless mice (HR-1), 10 mass % oleic acid applied; assay: Inhibiting effect against rough skin induced by oleic acid application (transepidermal water loss); format: in vivo; parameters: ΔTEWL value: unit not given here; conditions: for ΔTEWL value: three days, average of four animals, rough skin worse as value increases, control 12.0; for ΔTEWL value compared with the control aqueous solution / rough skin preventing/ameliorating effect: summary of Table 3, concentrations as in Table 3
Procedure: In order to investigate the inhibiting effect of α-amino acid derivatives and salts thereof against rough skin induced by oleic acid application, the transepidermal water loss (TEWL value) before and after application was measured, the difference was compared with the control (control aqueous solution), and the effect was determined. Sample preparation and the application method were in accordance with Example 1. The TEWL was determined using the TM210 TEWA Meter (Courage+Khazaka Electronic GmBH).
100 μL of 10 mass % oleic acid (solvent: ethanol) was applied to the back of hairless mice (HR-1, four mice per group). Then a sample solution (α-amino acid derivatives, and the like) was applied 100 μL at a time. This procedure was continued for three days. The following day, the TEWL value of the back was determined and the values of the four animals were averaged. Rough skin became worse as the ΔTEWL value increased.

Row | SMILES | Replica assessment (average of n = 5) ([1]; sample 1.5 mass %) | pore-shrinking effect [1] | Macroscopic evaluation (average of four animals) ([2]; sample 1.5 mass %) | Parakeratosis value (average of four animals) ([2]; sample 1.5 mass %) | parakeratosis value / parakeratosis-inhibiting effect [2] | rough skin preventing effect, based on stratum corneum peeling and redness [2] | Evaluation (sensory irritation, class of average rating) ([3]; sample 1.5 mass %) | sensory irritation [3] | ΔTEWL value ([4]; sample 1.5 mass %) | ΔTEWL value compared with the control aqueous solution / rough skin preventing/ameliorating effect [4] | Replica assessment (average of n = 5) ([1]; sample 3 mass %) | Macroscopic evaluation (average of four animals) ([2]; sample 3 mass %) | Parakeratosis value (average of four animals) ([2]; sample 3 mass %) | Evaluation (sensory irritation, class of average rating) ([3]; sample 3 mass %) | ΔTEWL value ([4]; sample 3 mass %) | Macroscopic evaluation (average of four animals) ([2]; sample 1 mass %) | Parakeratosis value (average of four animals) ([2]; sample 1 mass %) | ΔTEWL value ([4]; sample 1 mass %)
1 | CC(NS(=O)(=O)c1ccccc1)C(=O)O (racemic) [N-benzenesulfonyl-DL-alanine] | −0.8 | seen | 1.4 | 1.5 | reduced | seen | A (average rating of less than 0.2) | no problems | 7.0 | significantly lower | – | – | – | – | – | – | – | –
2 | O=C(O)C(CO)NS(=O)(=O)c1ccccc1 (racemic) [N-benzenesulfonyl-DL-serine] | – | seen | – | – | reduced | seen | – | no problems | – | significantly lower | −1.3 | 1.2 | 1.2 | A (average rating of less than 0.2) | 6.9 | – | – | –
3 | CC(NC(=O)OCc1ccccc1)C(=O)O (racemic) [N-carbobenzoyloxy-DL-alanine] | – | seen | – | – | reduced | seen | – | no problems | – | significantly lower | −1.0 | 1.3 | 1.2 | A (average rating of less than 0.2) | 6.6 | – | – | –
4 | O=C(NC(CO)C(=O)O)OCc1ccccc1 (racemic) [N-carbobenzoyloxy-DL-serine] | – | seen | – | – | reduced | seen | – | no problems | – | significantly lower | −1.3 | 1.2 | 1.2 | A (average rating of less than 0.2) | 6.7 | – | – | –
5 | CC(NC1CCCCC1)C(=O)O (racemic) [N-cyclohexyl-DL-alanine] | – | seen | – | – | reduced | seen | – | no problems | – | significantly lower | −1.4 | 1.3 | 1.4 | A (average rating of less than 0.2) | 6.5 | – | – | –
6 | O=C(O)C(CO)NC1CCCCC1 (racemic) [N-cyclohexyl-DL-serine] | – | seen | – | – | reduced | seen | – | no problems | – | significantly lower | −1.4 | 1.2 | 1.2 | A (average rating of less than 0.2) | 6.7 | – | – | –
7 | CCNC(C)C(=O)O (racemic) [N-ethyl-DL-alanine] | – | seen | – | – | reduced | seen | – | no problems | – | significantly lower | −0.5 | 1.6 | 1.5 | A (average rating of less than 0.2) | 8.2 | – | – | –
8 | CCNC(CO)C(=O)O (racemic) [N-ethyl-DL-serine] | – | seen | – | – | reduced | seen | – | no problems | – | significantly lower | −1.3 | 1.5 | 1.5 | A (average rating of less than 0.2) | 7.8 | – | – | –
9 | CNC(C)C(=O)O (racemic) [N-methyl-DL-alanine] | – | seen | – | – | reduced | seen | – | no problems | – | significantly lower | −0.9 | 1.4 | 1.4 | A (average rating of less than 0.2) | 8.1 | – | – | –
10 | O=C(O)CNC(=O)c1ccccc1 [Hippuric acid, reference compound] | – | – | – | – | not seen | – | – | – | – | not obtained | – | – | – | – | – | 1.9 | 2.0 | 10.5
11 | CC(=O)NCC(=O)O [N-acetyl-glycine, reference compound] | – | – | – | – | not seen | – | – | – | – | not obtained | – | 1.9 | 2.0 | – | 14.7 | – | – | –
12 | O=C(O)CNCP(=O)(O)O [Phosphonomethyl-glycine, reference compound] | – | – | – | – | not seen | – | – | – | – | not obtained | – | – | – | – | – | 1.9 | 2.1 | 11.4
13 | NCCC(=O)O [β-alanine, reference compound] | – | – | – | – | – | – | – | strong sensory irritation | – | – | – | – | – | D (average rating of 2.0 or greater) | – | – | – | –

Reference: patent US20090215893A1, “Parakeratosis inhibitor, pore-shrinking agent,or rough skin preventing/ameliorating agent, and external composition for skin” (Shiseido Company Ltd, priority 2005, published 2009)
